Test results as given in PubChem BioAssay AID192 (DTP/NCI, 2004).
“And” between values parts separate entries of the source, which are not always exact repeats. Identical values can stand only once. Toxic doses and inconclusive results are not listed.

Tested on: BDF1 mice, B16 melanoma ip, median survival T/C
Assay: NCI In Vivo Anticancer Drug Screen. Data for tumor model B16 Melanoma (intraperitoneal) in B6D2F1 (BDF1) mice
Details: endpoint: median survival time, higher = longer survival
Description: The antitumor activity of compounds was measured in mice bearing transplantable tumors. Survival or tumor size were measured and the results are expressed as the measurement made in the treated group (T) divided by the measurement made in the vehicle treated control group (C). The tumor model used in this assay is B16 Melanoma (intraperitoneal) in B6D2F1 (BDF1) mice

[1] = dose: 25.0 mg/kg/injection, schedule: Q01DX009 (ip), vehicle: Klucel (hydroxypropylcellulose) (HPC)
[2] = dose: 50.0 mg/kg/injection, schedule: Q01DX009 (ip), vehicle: Klucel (hydroxypropylcellulose) (HPC)
[3] = dose: 100.0 mg/kg/injection, schedule: Q01DX009 (ip), vehicle: Klucel (hydroxypropylcellulose) (HPC)
[4] = dose: 100.0 mg/kg/injection, schedule: Q01DX009 (ip), vehicle: saline with Tween-80
[5] = dose: 200.0 mg/kg/injection, schedule: Q01DX009 (ip), vehicle: saline with Tween-80
[6] = dose: 12.5 mg/kg/injection, schedule: Q01DX009 (ip), vehicle: Klucel (hydroxypropylcellulose) (HPC)
[7] = dose: 25.0 mg/kg/injection, schedule: Q01DX009 (ip), vehicle: saline with Tween-80
[8] = dose: 50.0 mg/kg/injection, schedule: Q01DX009 (ip), vehicle: saline with Tween-80
[9] = dose: 200.0 mg/kg/injection, schedule: Q01DX009 (ip), vehicle: Klucel (hydroxypropylcellulose) (HPC)

Structure (SMILES): O=C(/C=C/C(=O)Oc1ccc(Cl)cc1Cl)Oc1ccc(Cl)cc1Cl
- T/C [1]: 100 % of control
- T/C [2]: 91 % of control
- T/C [3]: 88 % of control and 94 % of control

Structure (SMILES): Nc1nc(N)nc(-c2ccc([N+](=O)[O-])o2)n1
- T/C [4]: 103 % of control
- T/C [5]: 97 % of control
- T/C (dose: 400.0 mg/kg/injection, schedule: Q01DX009 (ip), vehicle: saline with Tween-80): 90 % of control

Structure (SMILES): CCOC(=O)c1cnc(SC)nc1Nc1c(Br)cc(Br)cc1Br
- T/C [6]: 106 % of control
- T/C [1]: 109 % of control
- T/C [2]: 106 % of control

Structure (SMILES): C#CCOCC(O)CN (configuration not stated)
- T/C (dose: 100.0 mg/kg/injection, schedule: Q04DX003 (ip), vehicle: saline): 104 % of control
- T/C (dose: 200.0 mg/kg/injection, schedule: Q04DX003 (ip), vehicle: saline): 100 % of control
- T/C (dose: 400.0 mg/kg/injection, schedule: Q04DX003 (ip), vehicle: saline): 102 % of control

Structure (SMILES): CC[C@@H]1O[C@@H]([C@@H]2CC[C@](O)([C@]3(C)CC[C@@H]([C@@H](C)[C@@]4(O)CC[C@H](C)[C@@H](C[C@@]5(O)O[C@@H]([C@@H](C)[C@H](O)C[C@H]6CC[C@H](C)[C@@H]([C@@H](C)C(=O)O)O6)CC[C@@H]5C)O4)O3)O2)CC[C@@]1(C)O
- T/C (dose: 0.12 mg/kg/injection, schedule: Q01DX009 (ip), vehicle: saline): 91 % of control
- T/C (dose: 0.25 mg/kg/injection, schedule: Q01DX009 (ip), vehicle: saline): 89 % of control
- T/C (dose: 0.5 mg/kg/injection, schedule: Q01DX009 (ip), vehicle: saline): 96 % of control

Structure (SMILES): CC1(C)N=C(N)N=C(N)N1c1ccc(CCCCc2ccc(Cl)c(S(=O)(=O)F)c2)c(Cl)c1
- T/C (dose: 8.0 mg/kg/injection, schedule: Q01DX009 (ip), vehicle: saline): 105 % of control
- T/C (dose: 12.0 mg/kg/injection, schedule: Q01DX009 (ip), vehicle: saline): 114 % of control
- T/C (dose: 18.0 mg/kg/injection, schedule: Q01DX009 (ip), vehicle: saline): 118 % of control

Structure (SMILES): COC(=O)[C@@]12OC[C@]34[C@H]([C@@H](O)[C@@H]1O)[C@@]1(C)CC(=O)C(O)=C(C)[C@@H]1C[C@H]3OC(=O)[C@H](OC(=O)/C=C(\C)C(C)C)[C@@H]24
- T/C (dose: 0.03 mg/kg/injection, schedule: Q01DX009 (ip), vehicle: saline + alcohol): 122 % of control
- T/C (dose: 0.12 mg/kg/injection, schedule: Q01DX009 (ip), vehicle: other): 169 % of control
- T/C (dose: 0.12 mg/kg/injection, schedule: Q01DX009 (ip), vehicle: saline + alcohol): 153 % of control
- T/C (dose: 0.25 mg/kg/injection, schedule: Q01DX009 (ip), vehicle: other): 155 % of control
- T/C (dose: 0.25 mg/kg/injection, schedule: Q01DX009 (ip), vehicle: saline + alcohol): 154 % of control
- T/C (dose: 0.5 mg/kg/injection, schedule: Q01DX009 (ip), vehicle: other): 160 % of control
- T/C (dose: 0.5 mg/kg/injection, schedule: Q01DX009 (ip), vehicle: saline + alcohol): 154 % of control and 157 % of control
- T/C (dose: 1.0 mg/kg/injection, schedule: Q01DX009 (ip), vehicle: other): 164 % of control
- T/C (dose: 1.0 mg/kg/injection, schedule: Q01DX009 (ip), vehicle: saline + alcohol): 158 % of control and 164 % of control
- T/C (dose: 2.0 mg/kg/injection, schedule: Q01DX009 (ip), vehicle: saline + alcohol): 177 % of control
- T/C (dose: 125.0 micrograms/kg/injection, schedule: Q01DX009 (ip), vehicle: saline + alcohol): 160 % of control
- T/C (dose: 250.0 micrograms/kg/injection, schedule: Q01DX009 (ip), vehicle: saline + alcohol): 160 % of control
- T/C (dose: 500.0 micrograms/kg/injection, schedule: Q01DX009 (ip), vehicle: saline + alcohol): 168 % of control
- T/C (dose: 1000.0 micrograms/kg/injection, schedule: Q01DX009 (ip), vehicle: saline + alcohol): 164 % of control
- T/C (dose: 2000.0 micrograms/kg/injection, schedule: Q01DX009 (ip), vehicle: saline + alcohol): 97 % of control

Structure (SMILES): CCc1ccc2c(c1)N(CCCN(CCCl)CCCl)c1ccccc1S2
- T/C (dose: 1.56 mg/kg/injection, schedule: Q01DX009 (ip), vehicle: saline with Tween-80): 114 % of control
- T/C (dose: 1.56 mg/kg/injection, schedule: Q04DX003 (ip), vehicle: saline with Tween-80): 87 % of control
- T/C (dose: 3.12 mg/kg/injection, schedule: Q01DX009 (ip), vehicle: saline with Tween-80): 92 % of control and 123 % of control
- T/C (dose: 3.12 mg/kg/injection, schedule: Q04DX003 (ip), vehicle: saline with Tween-80): 110 % of control
- T/C (dose: 6.25 mg/kg/injection, schedule: Q01DX009 (ip), vehicle: saline with Tween-80): 111 % of control and 117 % of control
- T/C (dose: 6.25 mg/kg/injection, schedule: Q04DX003 (ip), vehicle: saline with Tween-80): 105 % of control
- T/C (dose: 12.5 mg/kg/injection, schedule: Q04DX003 (ip), vehicle: saline with Tween-80): 112 % of control
- T/C (dose: 25.0 mg/kg/injection, schedule: Q04DX003 (ip), vehicle: saline with Tween-80): 115 % of control

Structure (SMILES): Cc1cc2ncn(CC(=O)O)c2cc1C
- T/C [7]: 95 % of control
- T/C [8]: 97 % of control
- T/C [4]: 97 % of control

Structure (SMILES): CCCCCCCCCCCCCCCCCCNC(=O)Nc1c(C)cc(C)cc1C
- T/C (dose: 100.0 mg/kg/injection, schedule: Q01DX009 (ip), vehicle: gum acacia): 88 % of control

Structure (SMILES): O=C1C(N2CC2)=C(N2CC2)C(=O)C(N2CC2)=C1N1CC1
- T/C (dose: 10.0 micrograms/kg/injection, schedule: Q01DX009 (ip), vehicle: saline): 100 % of control and 118 % of control
- T/C (dose: 20.0 micrograms/kg/injection, schedule: Q01DX009 (ip), vehicle: saline): 120 % of control

Structure (SMILES): COc1cc2c(c3c1c(=O)c1ccccc1n3C)C=CC(C)(C)O2
- T/C [7]: 102 % of control
- T/C [8]: 107 % of control

Structure (SMILES): O=C(Nc1cccc(C(F)(F)F)c1)Nc1nccs1
- T/C [1]: 93 % of control
- T/C [2]: 95 % of control
- T/C [3]: 100 % of control
- T/C [9]: 101 % of control

Structure (SMILES): CCCCN(C)/N=N/c1[nH]ncc1C(=O)OCC
- T/C (dose: 78.7 mg/kg/injection, schedule: Q01DX009 (ip), vehicle: carboxymethylcellulose (CMC)): 109 % of control
- T/C (dose: 118.0 mg/kg/injection, schedule: Q01DX009 (ip), vehicle: carboxymethylcellulose (CMC)): 118 % of control
- T/C (dose: 177.0 mg/kg/injection, schedule: Q01DX009 (ip), vehicle: carboxymethylcellulose (CMC)): 118 % of control
- T/C (dose: 266.0 mg/kg/injection, schedule: Q01DX009 (ip), vehicle: carboxymethylcellulose (CMC)): 109 % of control

Structure (SMILES): CCSc1nc(C)cc(Cl)n1
- T/C [8]: 100 % of control
- T/C [4]: 104 % of control
- T/C [5]: 88 % of control

Structure (SMILES): C[C@]12CC[C@H](O)C[C@@]1(O)CC[C@@H]1[C@@H]2CC[C@]2(C)[C@@H](c3ccc(=O)oc3)CC[C@]12O
- T/C (dose: 1.25 mg/kg/injection, schedule: Q01DX009 (ip), vehicle: Klucel (hydroxypropylcellulose) (HPC)): 94 % of control
- T/C (dose: 2.5 mg/kg/injection, schedule: Q01DX009 (ip), vehicle: Klucel (hydroxypropylcellulose) (HPC)): 92 % of control
- T/C (dose: 5.0 mg/kg/injection, schedule: Q01DX009 (ip), vehicle: Klucel (hydroxypropylcellulose) (HPC)): 92 % of control
- T/C (dose: 10.0 mg/kg/injection, schedule: Q01DX009 (ip), vehicle: Klucel (hydroxypropylcellulose) (HPC)): 94 % of control
- T/C (dose: 12.5 mg/kg/injection, schedule: Q01DX009 (ip), vehicle: saline with Tween-80): 96 % of control
- T/C (dose: 20.0 mg/kg/injection, schedule: Q01DX009 (ip), vehicle: Klucel (hydroxypropylcellulose) (HPC)): 94 % of control
- T/C [7]: 94 % of control
- T/C [8]: 92 % of control

Structure (SMILES): CN(C)C(=O)C1(c2ccc(Cl)cc2)CCN(CCCC(=O)c2ccc(F)cc2)CC1
- T/C [6]: 94 % of control
- T/C [1]: 94 % of control
- T/C [2]: 97 % of control

Structure (SMILES): Cc1cc(Cl)ccc1NC(=O)c1cccc(C(=O)Nc2ccc(Cl)cc2C)c1
- T/C [3]: 100 % of control
- T/C [9]: 100 % of control
- T/C (dose: 400.0 mg/kg/injection, schedule: Q01DX009 (ip), vehicle: Klucel (hydroxypropylcellulose) (HPC)): 96 % of control

Structure (SMILES): CC[C@H]1CN2CCc3cc(OC)c(OC)cc3[C@@H]2C[C@@H]1C[C@H]1NCCc2cc(OC)c(OC)cc21
- T/C (dose: 0.87 mg/kg/injection, schedule: Q01DX009 (ip), vehicle: saline): 103 % of control and 104 % of control
- T/C (dose: 1.75 mg/kg/injection, schedule: Q01DX009 (ip), vehicle: saline): 100 % of control and 103 % of control
- T/C (dose: 3.5 mg/kg/injection, schedule: Q01DX009 (ip), vehicle: saline): 105 % of control and 111 % of control
- T/C (dose: 7.0 mg/kg/injection, schedule: Q01DX009 (ip), vehicle: saline): 116 % of control
- T/C (dose: 7.8 mg/kg/injection, schedule: Q04DX003 (ip), vehicle: saline): 108 % of control
- T/C (dose: 11.2 mg/kg/injection, schedule: Q04DX003 (ip), vehicle: saline): 98 % of control
- T/C (dose: 16.0 mg/kg/injection, schedule: Q04DX003 (ip), vehicle: saline): 107 % of control
- T/C (dose: 22.9 mg/kg/injection, schedule: Q04DX003 (ip), vehicle: saline): 104 % of control
